Data published in PubChem BioAssay AID256 (DTP/NCI, 2004).
Inconclusive results and toxic doses are left out. The calls were made as follows: active = survival T/C of 150% or more; inactive = T/C below 125% in these data.

System: CD2F1 mice, L1210 leukemia ip, survival T/C
Assay: NCI In Vivo Anticancer Drug Screen. Data for tumor model L1210 Leukemia (intraperitoneal) in CD2F1 (CDF1) mice
Conditions: higher = longer survival
Method in brief: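 Activity against a transplanted murine tumor was judged by comparing the compound group with a vehicle group. The outcome in the treated animals was divided by that in the controls.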

[1] = endpoint: mean survival time, dose: 25.0 mg/kg/injection, schedule: Q01DX009 (ip), vehicle: Klucel (hydroxypropylcellulose) (HPC)
[2] = endpoint: mean survival time, dose: 100.0 mg/kg/injection, schedule: Q04DX003 (ip), vehicle: saline with Tween-80
[3] = endpoint: mean survival time, dose: 200.0 mg/kg/injection, schedule: Q04DX003 (ip), vehicle: saline with Tween-80
[4] = endpoint: mean survival time, dose: 100.0 mg/kg/injection, schedule: Q01DX009 (ip), vehicle: saline with Tween-80
[5] = endpoint: mean survival time, dose: 200.0 mg/kg/injection, schedule: Q01DX009 (ip), vehicle: saline with Tween-80
[6] = endpoint: mean survival time, dose: 400.0 mg/kg/injection, schedule: Q04DX003 (ip), vehicle: saline with Tween-80

Measured: T/C

O/N=C/c1cccc[n+]1Cc1ccccc1
inactive: endpoint: mean survival time, dose: 1.56 mg/kg/injection, schedule: Q01DX009 (ip), vehicle: Klucel (hydroxypropylcellulose) (HPC) 107 % of control | endpoint: mean survival time, dose: 3.13 mg/kg/injection, schedule: Q01DX009 (ip), vehicle: Klucel (hydroxypropylcellulose) (HPC) 106 % of control | endpoint: mean survival time, dose: 6.25 mg/kg/injection, schedule: Q01DX009 (ip), vehicle: Klucel (hydroxypropylcellulose) (HPC) 102 % of control | endpoint: mean survival time, dose: 12.5 mg/kg/injection, schedule: Q01DX009 (ip), vehicle: Klucel (hydroxypropylcellulose) (HPC) 106 % of control | [1] 95 % of control | endpoint: mean survival time, dose: 25.0 mg/kg/injection, schedule: Q01DX009 (ip), vehicle: water 100 % of control

CC[NH-].[Cl][Pt+2][Cl].[NH-]C1CC1
inactive: endpoint: mean survival time, dose: 3.13 mg/kg/injection, schedule: Q04DX003 (ip), vehicle: distilled water + Tween-80 116 % of control

O=P([O-])([O-])O.O=P([O-])([O-])O.O=P([O-])([O-])O.O=P([O-])([O-])O.[Na+].[OH3+].[OH3+].[Pt+2].[Pt+2]
inactive: endpoint: median survival time, dose: 10.0 mg/kg/injection, schedule: Q04DX003 (ip), vehicle: water 102 % of control | endpoint: median survival time, dose: 20.0 mg/kg/injection, schedule: Q04DX003 (ip), vehicle: water 91 % of control | endpoint: median survival time, dose: 30.75 mg/kg/injection, schedule: Q04DX003 (ip), vehicle: water 103 % of control | endpoint: median survival time, dose: 40.0 mg/kg/injection, schedule: Q04DX003 (ip), vehicle: water 98 % of control | endpoint: median survival time, dose: 61.5 mg/kg/injection, schedule: Q04DX003 (ip), vehicle: water 102 % of control | endpoint: median survival time, dose: 80.0 mg/kg/injection, schedule: Q04DX003 (ip), vehicle: water 94 % of control | endpoint: median survival time, dose: 123.0 mg/kg/injection, schedule: Q04DX003 (ip), vehicle: water 104 % of control | endpoint: median survival time, dose: 246.0 mg/kg/injection, schedule: Q04DX003 (ip), vehicle: water 110 % of control

Cc1ccc(/C(=N\Nc2ccc([N+](=O)[O-])cc2[N+](=O)[O-])C2CC2c2ccccc2)cc1 (configuration not stated)
inactive: endpoint: mean survival time, dose: 50.0 mg/kg/injection, schedule: Q04DX002 (ip), vehicle: saline with Tween-80 91 % of control | endpoint: mean survival time, dose: 100.0 mg/kg/injection, schedule: Q04DX002 (ip), vehicle: saline with Tween-80 105 % of control | endpoint: mean survival time, dose: 200.0 mg/kg/injection, schedule: Q04DX002 (ip), vehicle: saline with Tween-80 91 % of control

[Cl][Pt+].[NH-]c1ccccc1C=Nc1ccccc1C=O
inactive: endpoint: median survival time, dose: 11.5 mg/kg/injection, schedule: Q04DX003 (ip), vehicle: saline with Tween-80 100 % of control | endpoint: median survival time, dose: 23.0 mg/kg/injection, schedule: Q04DX003 (ip), vehicle: saline with Tween-80 105 % of control | endpoint: median survival time, dose: 46.0 mg/kg/injection, schedule: Q04DX003 (ip), vehicle: saline with Tween-80 105 % of control | endpoint: median survival time, dose: 92.0 mg/kg/injection, schedule: Q04DX003 (ip), vehicle: saline with Tween-80 97 % of control | endpoint: median survival time, dose: 184.0 mg/kg/injection, schedule: Q04DX003 (ip), vehicle: saline with Tween-80 98 % of control

COc1ccc(/C=C(/C(=O)O)c2ccc(OC)cc2)cc1
inactive: endpoint: mean survival time, dose: 100.0 mg/kg/injection, schedule: Q01DX009 (ip), vehicle: other 98 % of control | endpoint: mean survival time, dose: 200.0 mg/kg/injection, schedule: Q01DX009 (ip), vehicle: other 102 % of control | endpoint: mean survival time, dose: 400.0 mg/kg/injection, schedule: Q01DX009 (ip), vehicle: other 98 % of control

Oc1c(Br)cc(Br)c(O)c1Br
inactive: [2] 97 % of control | [3] 95 % of control

Cc1ccc(NC(=O)Nc2ccccc2C(N)=O)cc1[N+](=O)[O-]
inactive: endpoint: mean survival time, dose: 50.0 mg/kg/injection, schedule: Q01DX009 (ip), vehicle: saline with Tween-80 94 % of control | [4] 98 % of control

NCc1cccn1OCc1ccccc1
inactive: [1] 96 % of control | endpoint: mean survival time, dose: 50.0 mg/kg/injection, schedule: Q01DX009 (ip), vehicle: Klucel (hydroxypropylcellulose) (HPC) 96 % of control | endpoint: mean survival time, dose: 100.0 mg/kg/injection, schedule: Q01DX009 (ip), vehicle: Klucel (hydroxypropylcellulose) (HPC) 107 % of control

COc1ccc(Cc2cncc3cc(OC)c(OC)cc23)cc1OC
inactive: endpoint: mean survival time, dose: 100.0 mg/kg/injection, schedule: Q01DX001 (ip), vehicle: saline 101 % of control | endpoint: mean survival time, dose: 200.0 mg/kg/injection, schedule: Q01DX001 (ip), vehicle: saline 96 % of control

COc1ccc(C(C)=O)cc1[N+](=O)[O-]
inactive: [4] 98 % of control | [2] 96 % of control | [5] 97 % of control | [3] 102 % of control | [6] 94 % of control

CC(=O)c1ccc(Oc2ccc(/C(C)=N\N=C(N)N)cc2)cc1
inactive: endpoint: mean survival time, dose: 25.0 mg/kg/injection, schedule: Q04DX003 (ip), vehicle: saline 100 % of control | endpoint: mean survival time, dose: 50.0 mg/kg/injection, schedule: Q04DX003 (ip), vehicle: saline 108 % of control | endpoint: mean survival time, dose: 75.0 mg/kg/injection, schedule: Q01DX001 (ip), vehicle: other 100 % of control | endpoint: mean survival time, dose: 150.0 mg/kg/injection, schedule: Q01DX001 (ip), vehicle: other 112 % of control

CC1OC(n2cc(Br)c(=O)[nH]c2=O)C(O)C(O)C1O (configuration not stated)
inactive: endpoint: mean survival time, dose: 12.5 mg/kg/injection, schedule: Q01DX005 (ip), vehicle: water 99 % of control | endpoint: mean survival time, dose: 25.0 mg/kg/injection, schedule: Q01DX005 (ip), vehicle: water 101 % of control | endpoint: mean survival time, dose: 50.0 mg/kg/injection, schedule: Q01DX005 (ip), vehicle: water 105 % of control | endpoint: mean survival time, dose: 100.0 mg/kg/injection, schedule: Q01DX005 (ip), vehicle: water 100 % of control | endpoint: mean survival time, dose: 200.0 mg/kg/injection, schedule: Q01DX005 (ip), vehicle: water 99 % of control

COc1nc(NC2OC(CO)C(O)C(O)C2O)c(Br)c(=O)n1C (configuration not stated)
inactive: endpoint: median survival time, dose: 12.5 mg/kg/injection, schedule: Q01DX005 (ip), vehicle: saline with Tween-80 101 % of control | endpoint: median survival time, dose: 25.0 mg/kg/injection, schedule: Q01DX005 (ip), vehicle: saline with Tween-80 101 % of control | endpoint: median survival time, dose: 50.0 mg/kg/injection, schedule: Q01DX005 (ip), vehicle: saline with Tween-80 100 % of control | endpoint: median survival time, dose: 100.0 mg/kg/injection, schedule: Q01DX005 (ip), vehicle: saline with Tween-80 102 % of control | endpoint: median survival time, dose: 200.0 mg/kg/injection, schedule: Q01DX005 (ip), vehicle: saline with Tween-80 96 % of control

Cn1c(-c2ccc(/C=N\N3CCN(/N=C/c4ccc(-c5c[n+]6ccsc6n5C)cc4)CC3)cc2)c[n+]2ccsc12
inactive: endpoint: median survival time, dose: 0.75 mg/kg/injection, schedule: Q01DX005 (ip), vehicle: saline with Tween-80 113 % of control | endpoint: median survival time, dose: 1.5 mg/kg/injection, schedule: Q01DX005 (ip), vehicle: saline with Tween-80 115 % of control | endpoint: median survival time, dose: 3.0 mg/kg/injection, schedule: Q01DX005 (ip), vehicle: saline with Tween-80 116 % of control

Nc1ncnc2c1ccn2C1OC(CO)CC1O (configuration not stated)
inactive: endpoint: mean survival time, dose: 75.0 mg/kg/injection, schedule: Q01DX001 (ip), vehicle: saline 103 % of control | endpoint: mean survival time, dose: 150.0 mg/kg/injection, schedule: Q01DX001 (ip), vehicle: saline 100 % of control | endpoint: mean survival time, dose: 300.0 mg/kg/injection, schedule: Q01DX001 (ip), vehicle: saline 109 % of control

NNC(=O)c1cccc(C(=O)NN)c1
inactive: [4] 96 % of control | [2] 93 % of control | [5] 93 % of control | [3] 95 % of control | endpoint: mean survival time, dose: 400.0 mg/kg/injection, schedule: Q01DX009 (ip), vehicle: saline with Tween-80 98 % of control | [6] 92 % of control

CN(C)CC(C)(C)C(=O)c1ccccc1
inactive: endpoint: mean survival time, dose: 100.0 mg/kg/injection, schedule: Q04DX002 (ip), vehicle: saline 93 % of control

[Cl][Pt+2][Cl].[NH-]c1ccc(S(N)(=O)=O)cc1.[NH-]c1ccc(S(N)(=O)=O)cc1
inactive: endpoint: mean survival time, dose: 25.0 mg/kg/injection, schedule: Q04DX003 (ip), vehicle: saline with Tween-80 90 % of control | endpoint: mean survival time, dose: 50.0 mg/kg/injection, schedule: Q04DX003 (ip), vehicle: saline with Tween-80 98 % of control | [2] 94 % of control | [3] 102 % of control | [6] 102 % of control
